From US12617795B2, “Substituted 6,7-dihydro-5H-pyrrolo[3,4-d]pyrimidines, 5,7-dihydrofuro[3,4-d]pyrimidines, and pyrido[2,3-d]pyrimidines as KCC2 modulators” (Astrazeneca AB, priority 2020, dated 2026)
pEC50: −log10 of the molar value.

Biological target: T1, KCC2 (Homo sapiens, UniProt Q9H2X9)
T1 construct: expressed in transfected cells; host or cells: HEK293 cells electroporated (Maxcyte STX) with the pcDNA3.1 KCC2 plasmid
T1 sequence (Q9H2X9 1-1139): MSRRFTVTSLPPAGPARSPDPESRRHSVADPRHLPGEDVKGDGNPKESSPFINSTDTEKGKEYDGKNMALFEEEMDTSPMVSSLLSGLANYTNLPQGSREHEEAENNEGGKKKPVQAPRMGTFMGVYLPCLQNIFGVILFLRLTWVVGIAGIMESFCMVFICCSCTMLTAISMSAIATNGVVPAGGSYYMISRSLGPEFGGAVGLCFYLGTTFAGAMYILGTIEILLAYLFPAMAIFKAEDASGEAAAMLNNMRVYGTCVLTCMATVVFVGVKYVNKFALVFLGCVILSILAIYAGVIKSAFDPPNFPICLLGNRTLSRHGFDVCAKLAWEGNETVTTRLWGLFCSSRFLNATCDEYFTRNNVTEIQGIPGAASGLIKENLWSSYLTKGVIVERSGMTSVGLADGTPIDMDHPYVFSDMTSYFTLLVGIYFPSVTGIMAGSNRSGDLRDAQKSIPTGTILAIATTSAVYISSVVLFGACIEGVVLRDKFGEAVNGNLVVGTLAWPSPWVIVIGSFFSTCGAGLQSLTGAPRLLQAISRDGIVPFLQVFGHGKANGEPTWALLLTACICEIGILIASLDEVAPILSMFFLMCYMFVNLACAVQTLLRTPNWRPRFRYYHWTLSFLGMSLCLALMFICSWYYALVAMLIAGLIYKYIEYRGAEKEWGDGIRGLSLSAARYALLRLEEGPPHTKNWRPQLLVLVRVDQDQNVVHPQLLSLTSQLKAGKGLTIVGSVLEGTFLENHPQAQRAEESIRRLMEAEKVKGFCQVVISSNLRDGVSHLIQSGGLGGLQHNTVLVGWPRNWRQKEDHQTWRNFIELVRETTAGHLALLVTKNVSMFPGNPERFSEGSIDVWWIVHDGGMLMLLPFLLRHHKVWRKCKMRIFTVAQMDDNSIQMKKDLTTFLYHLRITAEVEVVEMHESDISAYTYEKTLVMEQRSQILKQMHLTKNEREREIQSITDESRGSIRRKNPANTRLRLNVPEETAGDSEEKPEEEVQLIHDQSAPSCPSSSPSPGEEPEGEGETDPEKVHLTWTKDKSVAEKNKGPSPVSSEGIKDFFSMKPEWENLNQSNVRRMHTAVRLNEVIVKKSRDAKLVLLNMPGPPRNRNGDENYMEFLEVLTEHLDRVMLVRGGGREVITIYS
Assay: KCC2 thallium transport FLIPR-based assay (Tl+ influx in HEK293 cells expressing KCC2)
Type: cell-based
Conditions: 90 min compound incubation at RT, thallium flux at 120 s used to determine EC50
Outline: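 Transient electroporation of codon-optimised human KCC2 into HEK293 cells, plated and cultured 48 h before dye loading (1 h, RT). Compounds run as a 12-point 1:2 series from 100 μM top, 90 min RT in buffer containing bumetanide; Tl+ flux read by FLIPR after stimulus addition, 1 s intervals over 120 s, with the 120 s signal used for EC50.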

In order of rising pEC50:
1. CC(C)N1Cc2c(Nc3ccc(C4CCCCC4)cc3)nc(N3CCOC[C@H]3C(=O)O)nc2C1=O [Example 38, (3S)-4-{4-[(4-cyclohexylphenyl)amino]-7-oxo-6-(propan-2-yl)-6,7-dihydro-5H-pyrrolo[3,4-d]pyrimidin-2-yl}morpholine-3-carboxylic acid]  5.03
2. CC(C)N1Cc2c(Nc3ccc(C4CCCCC4)cc3)nc(N(C)CC(F)F)nc2C1=O [Example 36, 4-[(4-cyclohexylphenyl)amino]-2-[(2,2-difluoroethyl)(methyl)amino]-6-(propan-2-yl)-5,6-dihydro-7H-pyrrolo[3,4-d]pyrimidin-7-one]  5.20
3. CC(=O)Nc1cnc2nc(N3CCO[C@H](C)C3)nc(Nc3ccc(C4CCCCC4)cc3)c2c1 [Example 107, (R)—N-(4-((4-cyclohexylphenyl)amino)-2-(2-methylmorpholino)pyrido[2,3-d]pyrimidin-6-yl)acetamide]  5.20
4. CC(C)N1Cc2c(Nc3ccc(C4CCCCC4)cc3)nc(N(C)CCc3ccccn3)nc2C1=O [Example 37, 4-[(4-cyclohexylphenyl)amino]-2-{methyl[2-(pyridin-2-yl)ethyl]amino}-6-(propan-2-yl)-5,6-dihydro-7H-pyrrolo[3,4-d]pyrimidin-7-one]  5.20
5. CCc1cnc2nc(N3CCO[C@H](C)C3)nc(Nc3ccc(C4CCCCC4)cc3)c2c1 [Example 100, (R)—N-(4-cyclohexylphenyl)-6-ethyl-2-(2-methylmorpholino) pyrido[2,3-d]pyrimidin-4-amine]  5.20
6. CC(C)c1ccc(Nc2nc(N3CCOCC3)nc3c2CN(C(C)C)C3=O)cc1 [Example 86, 2-(morpholin-4-yl)-6-(propan-2-yl)-4-{[4-(propan-2-yl)phenyl]amino}-5,6-dihydro-7H-pyrrolo[3,4-d]pyrimidin-7-one]  5.23
7. C1=C(c2nc(Nc3ccc(C4CCCCC4)cc3)c3cccnc3n2)CCOC1 [Example 98, N-(4-cyclohexylphenyl)-2-(3,6-dihydro-2H-pyran-4-yl)pyrido[2,3-d]pyrimidin-4-amine]  5.26
8. CC(C)c1ccc(Nc2nc(N3CCO[C@H](C)C3)nc3c2CN(C(C)C)C3=O)cc1 [Example 7, 2-[(2R)-2-methylmorpholin-4-yl]-6-(propan-2-yl)-4-{[4-(propan-2-yl)phenyl]amino}-5,6-dihydro-7H-pyrrolo[3,4-d]pyrimidin-7-one]  5.35
9. CC(C)N1Cc2c(Nc3ccc(C4CCCCC4)cc3)nc(N(C)CC3CC3)nc2C1=O [Example 30, 4-[(4-cyclohexylphenyl)amino]-2-[(cyclopropylmethyl)(methyl)amino]-6-(propan-2-yl)-5,6-dihydro-7H-pyrrolo[3,4-d]pyrimidin-7-one]  5.39
10. C[C@@H]1CN(c2nc(Nc3ccc(C4CCCCC4)cc3)c3ccc[n+]([O-])c3n2)CCO1 [Example 99, (R)-4-((4-cyclohexylphenyl)amino)-2-(2-methylmorpholino)pyrido [2,3-d]pyrimidine 8-oxide]  5.42
11. Cc1cc(Nc2nc(N3CCOCC3)nc3c2CN(C(C)C)C3=O)ccc1-c1ccccc1 [Example 88, 4-[(2-methyl[1,1′-biphenyl]-4-yl)amino]-2-(morpholin-4-yl)-6-(propan-2-yl)-5,6-dihydro-7H-pyrrolo[3,4-d]pyrimidin-7-one]  5.45
12. CC(C)N1Cc2c(Nc3ccc(C4CCCCC4)cc3)nc(N3CCOC(CCO)C3)nc2C1=O (stereo not drawn) [Example 27, 4-[(4-cyclohexylphenyl)amino]-2-[2-(2-hydroxyethyl)morpholin-4-yl]-6-(propan-2-yl)-5,6-dihydro-7H-pyrrolo[3,4-d]pyrimidin-7-one]  5.45
13. CC(C)N1Cc2c(Nc3ccc(-c4ccc(Cl)cc4)cc3)nc(N3CCOCC3)nc2C1=O [Example 89, 4-[(4′-chloro[1,1′-biphenyl]-4-yl)amino]-2-(morpholin-4-yl)-6-(propan-2-yl)-5,6-dihydro-7H-pyrrolo[3,4-d]pyrimidin-7-one]  5.45
14. CC(C)N1Cc2c(Nc3ccc(C4CCCCC4)cc3)nc(-c3cnn(C)c3)nc2C1=O [Example 47, 4-[(4-cyclohexylphenyl)amino]-2-(1-methyl-1H-pyrazol-4-yl)-6-(propan-2-yl)-5,6-dihydro-7H-pyrrolo[3,4-d]pyrimidin-7-one]  5.50
15. CC(C)N1Cc2c(Nc3ccc(C4CCCCC4)cc3)nc(N3CCCOCC3)nc2C1=O [Example 24, 4-[(4-cyclohexylphenyl)amino]-2-(1,4-oxazepan-4-yl)-6-(propan-2-yl)-5,6-dihydro-7H-pyrrolo[3,4-d]pyrimidin-7-one]  5.53
16. C[C@@H]1CN(c2nc(Nc3ccc(C4CCCCC4)cc3)c3c(n2)C(=O)N(CCN(C)C)C3)CCO1 [Example 73, 4-[(4-cyclohexylphenyl)amino]-6-[2-(dimethylamino)ethyl]-2-[(2R)-2-methylmorpholin-4-yl]-5,6-dihydro-7H-pyrrolo[3,4-d]pyrimidin-7-one]  5.56
17. CC(C)N1Cc2c(Nc3ccc(C4CCCCC4)cc3)nc(N3CCSC3)nc2C1=O [Example 19, 4-[(4-cyclohexylphenyl)amino]-6-(propan-2-yl)-2-(1,3-thiazolidin-3-yl)-5,6-dihydro-7H-pyrrolo[3,4-d]pyrimidin-7-one]  5.69
18. C[C@@H]1CN(c2nc(Nc3ccc(C4CCCCC4)cc3)c3cc(N)cnc3n2)CCO1 [Example 108, (R)—N4-(4-cyclohexylphenyl)-2-(2-methylmorpholino)pyrido[2,3-d]pyrimidine-4,6-diamine]  5.71
19. COc1cnc2nc(N3CCO[C@H](C)C3)nc(Nc3ccc(C4CCCCC4)cc3)c2c1 [Example 106, (R)—N-(4-cyclohexylphenyl)-6-methoxy-2-(2-methylmorpholino) pyrido[2,3-d]pyrimidin-4-amine]  5.73
20. CCN(CC)c1nc(Nc2ccc(C(C)C)cc2)c2c(n1)C(=O)N(C(C)C)C2 [Example 1, 2-(Diethylamino)-6-isopropyl-4-((4-isopropylphenyl)amino)-5,6-dihydro-7H-pyrrolo[3,4-d]pyrimidin-7-one]  5.77
21. C[C@@H]1CN(c2nc(Nc3ccc(C4CCCCC4)cc3)c3c(n2)C(=O)N(CCCN(C)C)C3)CCO1 [Example 72, (R)-4-((4-cyclohexylphenyl)amino)-6-(3-(dimethylamino)propyl)-2-(2-methylmorpholino)-5,6-dihydro-7H-pyrrolo[3,4-d]pyrimidin-7-one]  5.82
22. CCCCCCCOc1ccc(-c2ccc(Nc3nc(N4CCOC(C5CC5)C4)nc4c3COC4)cc2)cc1 (stereo not drawn) [Example 93]  5.85
23. CC1CN(c2nc(Nc3ccc(C4CCCCC4)cc3)c3c(n2)C(=O)N(C(C)C)C3)CCO1 (stereo not drawn) [Example 12, 4-[(4-cyclohexylphenyl)amino]-2-(2-methylmorpholin-4-yl)-6-(propan-2-yl)-5,6-dihydro-7H-pyrrolo[3,4-d]pyrimidin-7-one]  5.87
24. CC(C)N1Cc2c(Nc3ccc(C4CCCCC4)cc3)nc(-c3ccncc3)nc2C1=O [Example 46, 4-[(4-cyclohexylphenyl)amino]-6-(propan-2-yl)-2-(pyridin-4-yl)-5,6-dihydro-7H-pyrrolo[3,4-d]pyrimidin-7-one]  5.89
25. NC(=O)c1cnc2nc(N3CCOC(C4CC4)C3)nc(Nc3ccc(C4CCCCC4)cc3)c2c1 (stereo not drawn) [Example 105, 4-((4-cyclohexylphenyl)amino)-2-(2-cyclopropylmorpholino) pyrido[2,3-d]pyrimidine-6-carboxamide]  5.93
26. Cc1cc(-c2nc(Nc3ccc(C4CCCCC4)cc3)c3c(n2)C(=O)N(C(C)C)C3)ccn1 [Example 44, 4-[(4-cyclohexylphenyl)amino]-2-(2-methylpyridin-4-yl)-6-(propan-2-yl)-5,6-dihydro-7H-pyrrolo[3,4-d]pyrimidin-7-one]  6.05
27. C#CCCCCCOc1ccc(-c2ccc(Nc3nc(N4CCOC(C5CC5)C4)nc4c3CN(C(C)C)C4=O)cc2)cc1 (stereo not drawn) [Example 52, 2-(2-cyclopropylmorpholin-4-yl)-4-({4′-[(hept-6-yn-1-yl)oxy][1,1′-biphenyl]-4-yl}amino)-6-(propan-2-yl)-5,6-dihydro-7H-pyrrolo[3,4-d]pyrimidin-7-one]  6.84
